According to US20250340577A1, “BETA-LACTOMASE INHIBITORS AND USES THEREOF” (Case Western Reserve University, priority 2021, published 2025):
Read-outs that look alike come from different tables or passages of the source.

Experiments:
Assay type in all cases: cell-based
[1] = system: Klebsiella pneumonia/FDA-CDC AR-BANK#0098; assay: MIC of MB076 alone or in combination with cefepime or meropenem; settings: Klebsiella pneumoniae
Procedure: (§1) MICs were determined by the Agar microdilution method, following CLSI guidelines. Compounds were tested at fixed concentration of 4 ug/ml in combination with cefepime.

[2] = system: Klebsiella pneumonia/FDA-CDC AR-BANK#0097; assay: as above; settings: Klebsiella pneumoniae
Procedure: as §1

[3] = system: Klebsiella pneumonia/BAA-1705; assay: as above; settings: Klebsiella pneumoniae, BAA1705
Procedure: as §1

[4] = system: blaCMY-2; assay: MIC of antibiotics in combination with 10 μg/mL of ceftolozane-like BATSIs; settings: CAZ + 10 μg/mL compound
[5] = system: blaADC-7; assay: as above; settings: CAZ + 10 μg/mL compound
[6] = system: blaPDC-3E221K; assay: as above; settings: CAZ + 10 μg/mL compound
[7] = system: K. pneum KPC-Kpn; assay: as above; settings: FEP + 10 μg/mL compound
[8] = system: K. pneum blaKPC-2; assay: as above; settings: FEP + 10 μg/mL compound
[9] = system: blaCTXM-9; assay: as above; settings: FEP + 10 μg/mL compound
[10] = system: 18SH; assay: as above; settings: CAZ + 10 μg/mL compound
[11] = system: E. coli DH10B pBC-SK KPC-2; assay: MIC with cefepime, agar microdilution, CLSI; settings: compound fixed at 4 ug/ml
Procedure: (§2) Minimum inhibitory concentration (MIC) of MB076 and derivatives (PCF_038-043) in combination with cefepime.
as §1

[12] = system: E. coli DH10B pBC-SK control; assay: MIC with cefepime, agar microdilution, CLSI; settings: compound fixed at 4 ug/ml; B-lactamases none
Procedure: as §2, §1

[13] = system: E. coli pLTCF2; assay: MIC with cefepime, agar microdilution, CLSI; settings: compound fixed at 4 ug/ml
Procedure: as §2, §1

[14] = system: E. coli DH10B pBC-SK PDC-3; assay: MIC with cefepime, agar microdilution, CLSI; settings: compound fixed at 4 ug/ml
Procedure: as §2, §1

[15] = system: K. pneumoniae 427; assay: MIC with cefepime, agar microdilution, CLSI; settings: compound fixed at 4 ug/ml; TEM-1, SHV-1, CTX-M-3
Procedure: as §2, §1

[16] = system: K. pneumoniae original KPC-2; assay: MIC with cefepime, agar microdilution, CLSI; settings: compound fixed at 4 ug/ml
Procedure: as §2, §1

[17] = system: K. pneumoniae ST17; assay: MIC with cefepime, agar microdilution, CLSI; settings: compound fixed at 4 ug/ml; KPC-2, TEM, SHV, CTX-M-Group 1
Procedure: as §2, §1

[18] = system: K. pneumoniae 253; assay: MIC with cefepime, agar microdilution, CLSI; settings: compound fixed at 4 ug/ml; TEM-12, SHV-5, CTX-M
Procedure: as §2, §1

[19] = system: E. coli DH10B pBC-SK SHV-2; assay: MIC with cefepime, agar microdilution, CLSI; settings: compound fixed at 4 ug/ml
Procedure: as §2, §1

[20] = system: E. coli ATCC BAA202; assay: MIC with cefepime, agar microdilution, CLSI; settings: compound fixed at 4 ug/ml; SHV-1
Procedure: as §2, §1

[21] = system: E. coli pLTCF1; assay: MIC with cefepime, agar microdilution, CLSI; settings: compound fixed at 4 ug/ml; CTX-M group 9
Procedure: as §2, §1

[22] = system: K. pneumoniae 255; assay: MIC with cefepime, agar microdilution, CLSI; settings: compound fixed at 4 ug/ml; TEM-1, SHV-2
Procedure: as §2, §1

[23] = system: K. pneumoniae ST258 B5; assay: MIC with cefepime, agar microdilution, CLSI; settings: compound fixed at 4 ug/ml; KPC-2
Procedure: as §2, §1

[24] = system: K. pneumoniae 34700; assay: MIC with cefepime, agar microdilution, CLSI; settings: compound fixed at 4 ug/ml; CTX-M-15, SHV, TEM
Procedure: as §2, §1

[25] = system: E. coli DH10B pBC-SK P99; assay: MIC with cefepime, agar microdilution, CLSI; settings: compound fixed at 4 ug/ml
Procedure: as §2, §1

[26] = system: K. pneumoniae 266; assay: MIC with cefepime, agar microdilution, CLSI; settings: compound fixed at 4 ug/ml; SHV-5
Procedure: as §2, §1

[27] = system: A. baumannii 0057; assay: MIC with cefepime, agar microdilution, CLSI; settings: compound fixed at 4 ug/ml; ADC-7
Procedure: as §2, §1

[28] = system: E. coli 29838; assay: MIC with cefepime, agar microdilution, CLSI; settings: compound fixed at 4 ug/ml; CTX-M-14, TEM-1
Procedure: as §2, §1

[29] = system: K. pneumoniae ST258 C3; assay: MIC with cefepime, agar microdilution, CLSI; settings: compound fixed at 4 ug/ml; KPC-3
Procedure: as §2, §1

| SMILES | MIC of cefepime in combination with compound [11] [µg/mL] | MIC of cefepime in combination with compound [12] [µg/mL] | MIC of cefepime in combination with compound [13] [µg/mL] | MIC of cefepime in combination with compound [14] [µg/mL] | MIC of cefepime in combination with compound [15] [µg/mL] | MIC of cefepime in combination with compound [16] [µg/mL] | MIC of cefepime in combination with compound [17] [µg/mL] | MIC of cefepime in combination with compound [18] [µg/mL] | MIC of cefepime in combination with compound [19] [µg/mL] | MIC of cefepime in combination with compound [20] [µg/mL] | MIC of cefepime in combination with compound [21] [µg/mL] | MIC of cefepime in combination with compound [22] [µg/mL] | MIC of cefepime in combination with compound [23] [µg/mL] | MIC of cefepime in combination with compound [24] [µg/mL] | MIC of cefepime in combination with compound [25] [µg/mL] | MIC of cefepime in combination with compound [26] [µg/mL] | MIC of cefepime in combination with compound [27] [µg/mL] | MIC of cefepime in combination with compound [28] [µg/mL] | MIC of cefepime in combination with compound [29] [µg/mL] | other results |
| --- | --- | --- | --- | --- | --- | --- | --- | --- | --- | --- | --- | --- | --- | --- | --- | --- | --- | --- | --- | --- |
| C[C@@H](O)[C@H]1C(=O)N2C(C(=O)O)=C(S[C@@H]3CN[C@H](C(=O)N(C)C)C3)[C@H](C)[C@H]12 [Meropenem, meropenem] |  |  |  |  |  |  |  |  |  |  |  |  |  |  |  |  |  |  |  | MIC ([1]; single agent, read-out: MIC): 16 µg/mL; MIC ([2]; single agent, read-out: MIC): > 32 µg/mL; MIC ([3]; single agent, read-out: MIC): 32 µg/mL |
| CC(C)(O/N=C(\C(=O)NCB(O)O)c1nsc(N)n1)C(=O)O [PCF_013] |  |  |  |  |  |  |  |  |  |  |  |  |  |  |  |  |  |  |  | MIC values of antibiotics in combination with 10 μg/mL of compounds [4]: 64 mg/L; MIC values of antibiotics in combination with 10 μg/mL of compounds [5]: 4 mg/L; MIC values of antibiotics in combination with 10 μg/mL of compounds [6]: 8 mg/L; MIC values of antibiotics in combination with 10 μg/mL of compounds [7]: 16 mg/L; MIC values of antibiotics in combination with 10 μg/mL of compounds [8]: 16 mg/L; MIC values of antibiotics in combination with 10 μg/mL of compounds [9]: 4 mg/L; MIC values of antibiotics in combination with 10 μg/mL of compounds [10]: 64 mg/L |
| CC(C)(O/N=C(\C(=O)N[C@@H](Cn1cc(C(=O)O)nn1)B(O)O)c1nsc(N)n1)C(=O)O [PCF_014] |  |  |  |  |  |  |  |  |  |  |  |  |  |  |  |  |  |  |  | MIC values of antibiotics in combination with 10 μg/mL of compounds [4]: 64 mg/L; MIC values of antibiotics in combination with 10 μg/mL of compounds [5]: 8 mg/L; MIC values of antibiotics in combination with 10 μg/mL of compounds [6]: 32 mg/L; MIC values of antibiotics in combination with 10 μg/mL of compounds [7]: 32 mg/L; MIC values of antibiotics in combination with 10 μg/mL of compounds [8]: 32 mg/L; MIC values of antibiotics in combination with 10 μg/mL of compounds [9]: 2 mg/L; MIC values of antibiotics in combination with 10 μg/mL of compounds [10]: 64 mg/L |
| Cc1nnc(SCC(=O)N[C@@H](Cn2cc(C(=O)O)nn2)B(O)O)[nH]1 [PCF_038] | < 0.25 | < 0.25 | < 0.25 | < 0.25 | < 0.25 | < 0.25 | 32 | 2 | < 0.25 | 0.5 | < 0.25 | 2 | 16 | 1 | < 0.25 | < 0.25 | 64 | < 0.25 | 0.5 |  |
| O=C(CNn1cnnc1S)N[C@@H](Cn1cc(C(=O)O)nn1)B(O)O [PCF_039] | < 0.25 | < 0.25 | < 0.25 | < 0.25 | < 0.25 | 0.5 | 16 | 1 | < 0.25 | < 0.25 | < 0.25 | 2 | 4 | 1 | < 0.25 | < 0.25 | 32 | < 0.25 | < 0.25 |  |
| O=C(CSC1=NCCS1)NC(Cn1cc(C(=O)O)nn1)B(O)O (centres unmarked) [PCF_040] | 1 | < 0.25 | < 0.25 | < 0.25 | 1 | 2 | 32 | 4 | 0.5 | 2 | 0.5 | 2 | 32 | 4 | < 0.25 | < 0.25 | 32 | 0.5 | 2 |  |
| O=C(CNc1nnc(S)s1)N[C@@H](Cn1cc(C(=O)O)nn1)B(O)O [PCF_041] | < 0.25 | < 0.25 | < 0.25 | < 0.25 | 0.5 | 0.5 | 16 | 2 | < 0.25 | 0.5 | 0.5 |  | 16 | 2 | < 0.25 | < 0.25 | 64 | < 0.25 | 1 |  |
| O=C(CSc1ccccn1)N[C@@H](Cn1cc(C(=O)O)nn1)B(O)O [PCF_042] |  | < 0.25 | < 0.25 | < 0.25 | < 0.25 | < 0.25 | 32 |  | < 0.25 | < 0.25 | < 0.25 | 2 | 16 | 1 | < 0.25 | < 0.25 | 64 | < 0.25 | 0.5 |  |
| O=C(CS)N[C@@H](Cn1cc(C(=O)O)nn1)B(O)O [PCF_043] | 1 | < 0.25 | < 0.25 | < 0.25 | 1 | 1 | 32 | 4 | < 0.25 | 1 | 1 | 4 | 16 | 4 | 1 | < 0.25 | 32 | 0.5 | 2 |  |
| CN(C)c1cc(NC(=O)CNC(C)(C)C)c(O)c2c1C[C@H]1C[C@H]3[C@H](N(C)C)C(O)=C(C(N)=O)C(=O)[C@@]3(O)C(O)=C1C2=O [Tigecycline] |  |  |  |  |  |  |  |  |  |  |  |  |  |  |  |  |  |  |  | MIC [1]: 1 µg/mL; MIC [2]: 4 µg/mL; MIC [3]: 2 µg/mL |
